Data published in PubChem BioAssay AID2305 (GlaxoSmithKline (GSK), 2010).

tested on: P. falciparum 3D7 growth, pLDH absorbance; experiment: blood-stage malaria parasite growth potency – strain 3D7, dose response (AID 2305)

| Compound | IC50 [nM] |
| --- | --- |
| NC(=O)c1ccc(C(=O)Nc2cccc(-c3cccc(-c4nc5ccc(C(F)(F)F)cc5[nH]4)c3)c2)cc1 | 230 |
| Cc1cccc2[nH]c(-c3cccc(-c4cccc(NC(=O)Nc5ccc(Cl)c(Cl)c5)c4)c3)nc12 | 370 |
| CCOC(=O)/C(=N\OC(C)(C)C(=O)NCc1ccc(O)c(O)c1)c1csc(NC(c2ccccc2)(c2ccccc2)c2ccccc2)n1 | 170 |
| COc1ccc(C2CC(c3cccs3)=NN2C(=O)c2ccccc2)cc1OC (centres undefined) | 660 |
| CCCCc1ccc(CCNCCCCCCNCCc2ccc(O)c(O)c2)cc1 | 1070 |
| COc1ccc(CNCc2cccc(-c3cccc(-c4nc5c(C)cccc5[nH]4)c3)c2)cc1 | 130 |
| NC(=O)c1sc(-n2cnc3ccccc32)cc1OCc1ccccc1[N+](=O)[O-] | 700 |
| COc1cc2cc(C(=O)Nc3ccccc3)c(N)nc2cc1OC | 1130 |
| c1ccc(CNCc2cccc(-c3cccc(-c4nc5ccccc5[nH]4)c3)c2)cc1 | 570 |
| Cc1cc(NN=Cc2ccc(F)cc2)c2cccc(C)c2n1 | 780 |
| O=C(Nc1cccnc1)c1ccc(-c2cc3ccncc3cc2OC2CCNCC2)s1 | 880 |
| COc1ccc2nccc([C@@H](O)CN3CCC(NCc4nc5c(OCc6ccccc6)cccc5[nH]4)CC3)c2c1 | 180 |
| CCOc1ccc(N2CCN(CCCCNC(=O)c3ccc(NC(=O)c4ccc(Cl)cc4)cc3)CC2)c(OCC)c1 | 570 |
| O=C(Nc1cccc(-c2ccc(CN3CCCC3)cc2)c1)c1ccc(Cl)cc1 | 430 |
| COc1ccc2c(NN=Cc3ccc(F)cc3)ccnc2c1 | 440 |
| O=C(NCC1CCN(Cc2ccsc2)C1)c1cc(-c2cccc(C(F)(F)F)c2)cs1 (centres undefined) | 700 |
| CN(C)CCCOc1ccc(CCNCc2cccc(Oc3ccc(Cl)cc3)c2)cc1 | 890 |
| N#Cc1ccc2c(c1)CCN(CCC1CCC(NC(=O)/C=C/c3ccc4ccccc4c3)CC1)CC2 (centres undefined) | 720 |
| Cc1cc(N)c2cc(NC(=O)/C=C/c3ccccc3Cl)ccc2n1 | 400 |
| Cc1nn(CC(C)C)c2sc(C(=O)N3CCN(S(=O)(=O)c4ccc(C#N)cc4)CC3)cc12 | 740 |
| COc1ccc2nc3cc(Cl)ccc3c(NCCCN3CCNCC3)c2c1 | 230 |
| CN1CCN(CC(=O)Nc2ccc(-c3ccc(-c4nc5ccc(C(F)(F)F)cc5[nH]4)s3)cc2)CC1 | 570 |
| Cc1ccccc1C1CCN(C2CCC(NC(=O)/C=C/c3cccc(Cl)c3)CC2)CC1 (centres undefined) | 890 |
| O=C(Nc1cccc(-c2nc3ccccc3[nH]2)c1)c1cccc(NC(=O)c2ccco2)c1 | 360 |
| Cc1cc(NN=Cc2ccccc2)c2cc(C(F)(F)F)ccc2n1 | 150 |

| Compound | IC50 [nM] |
| --- | --- |
| C[C@@H](CC1CCCCC1)OC(=O)N[C@H]1CCN(C#N)C1 | 870 |
| CCC(C)Oc1ccc2nc(N)nc(N)c2c1Cl (centres undefined) | 180 |
| COc1ccc(-c2ccccc2CNc2nc(NCCc3ccc(O)cc3)nc(N3CCNCC3)n2)cc1 | 1080 |
| CCCC(C)Nc1nc(C)cc(N[C@@H](Cc2ccccc2)C(=O)NCCc2ccccc2)n1 (some centres undefined) | 950 |
| CCOC(=O)N1CCN(CCCNc2c3ccccc3nc3ccccc23)CC1 | 1010 |
| CCN(CC)C(=NCCCCCCN=C(/N=C(\N)c1ccc(Cl)cc1)N(CC)CC)/N=C(\N)c1ccc(Cl)cc1 | 380 |
| CCN(CCCN1CCCCC1)c1cc(C)nc(Nc2cccc(OC(F)(F)F)c2)n1 | 230 |
| NC(=O)CNC(=O)CCCN=C(N)N | 170 |
| O=C(NC1CCCCN(Cc2ccccc2O)C1)c1cccc(Cl)c1 (centres undefined) | 1060 |
| COc1cc(NC(=O)N2CCc3ccc(OCCN4CCCCC4)cc32)cc(C(F)(F)F)c1 | 270 |
| COc1cccc2cc(C(=O)N[C@@H](CC(C)C)C(=O)N[C@H](/C=N/N(C)C(=O)OC(C)(C)C)Cc3ccccc3)oc12 | 260 |
| O=C(NCCCN1CCC(Cc2ccccc2)CC1)c1cc2c(Cl)nc3ccccc3c2s1 | 740 |
| C=Cc1sc(CNCCCNc2cc(=O)c3ccccc3[nH]2)c(C)c1Br | 1050 |
| Cc1ccccc1N1CCN(c2ccc(C(=O)Nc3ccccc3)cn2)CC1 | 590 |
| CS(=O)(=O)CCN(CCS(C)(=O)=O)Cc1ccc(-c2ccc3ncnc(Nc4ccc(OCc5cccc(F)c5)c(Cl)c4)c3c2)o1 | 1020 |
| Cc1ccccc1C1CCN(C2CCC(NC(=O)/C=C/c3cccc(Cl)c3Cl)CC2)CC1 (centres undefined) | 1030 |
| COc1ccc(C2C(C(=O)OC3CCCCC3)=C(C)NC3=C2C(=O)CCC3)cc1Br (centres undefined) | 580 |
| Cc1cc(NCCC(=O)NCCOc2ccccc2)nc(NCc2ccccc2C)n1 | 870 |
| C[C@H](Cc1ccc(OCCCCCCOc2ccccc2)cc1)NC[C@@H](O)c1cc(Br)no1 | 880 |
| O=C(/C=C/c1ccc(F)c(C(F)(F)F)c1)N1CCC(CN2CCC(c3c[nH]c4ccccc34)CC2)CC1 | 920 |
| Cc1cc(CNCCCCCCNCc2cccc([N+](=O)[O-])c2)ccc1O | 720 |
| O=C(NC1CCN(Cc2ccc(Cl)cc2)CC1)c1cn(-c2ccccc2)nc1-c1cccnc1 | 970 |
| COc1cc2nc(N(C)C)nc(Nc3ccc(OCc4ccccc4)cc3)c2cc1OC | 70 |
| COc1ccc(NC(=O)c2cccc(Br)c2)cc1N1CCN(CCCCCCCN2CCN(c3cc(NC(=O)c4cccc(Br)c4)ccc3OC)CC2)CC1 | 180 |
